The values below come from patent US20240141291A1, “FUNCTIONAL BRAIN REGION-SPECIFIC NEURAL SPHEROIDS AND METHODS OF USE” (THE UNITED STATES OF AMERICA, AS REPRESENTED BY THE …, priority 2021, published 2024).

Holding throughout (type): cell-based, human
Data set [1] concerns single neuron spheroids expressing hM3Dq or hM4Di. Kind of data set: Chemogenetic (DREADDs) activation with CNO, FLIPR calcium activity. The following applies: 1 uM CNO. Here is the method:
Viruses and dyes: To assess calcium activity, the calcium dye, Cal6 (Molecular Devices), and genetically encoded calcium indicator, GCaMP6f (Addgene, cat #100836-AAV9) were used. Cal6 was used according to manufacturer's instructions and 10 mL of maintenance media was added to each vial. Two hours before activity was recorded, half of the spheroid media was exchanged for media with Cal6. The plates were covered in foil and placed in the incubator at 37° C. during the 2-hour (hr) incubation period. Since all viruses used were adeno-associated viruses (AAV), they were added to the media on day 7 to allow for 2-weeks expression prior to recording or testing. […]
Fluorescent Imaging plate Reader (FLIPR): The FLIPR Penta (Molecular Devices) was used to assess calcium fluorescence across the 384-well plate simultaneously and to observe changes after treatment with compounds. The evening before calcium activity was measured, plates were sealed with parafilm and centrifuged at 1485×g for 2-min to get spheroids to the bottom of the well in a centered position. On the day of recording, the plate used for recording was placed in the read plate position inside of the FLIPR following the 2-hour Cal6 incubation at 37° C. […] Fluorescent image reads were taken every 0.6 seconds for all plates, with exposure time of 0.03 and 50% excitation intensity. […]

Data set [2] deals with PFC-like spheroids. Kind of data set: Confocal (Phenix Plus) calcium recordings, opioid use disorder model. The following applies: PFC-like spheroids expressing GCaMP6f; 10 μM DAMGO; day 21. Here is the method: (§1) Confocal Imaging: The Opera Phenix Plus High-Content Imaging System (Perkin Elmer) spinning disk confocal was used to record calcium activity from spheroids in individual wells. Prior to recording, the stage was pre-warmed to 37° C., and the carbon dioxide was set to 5%. Recordings were obtained both from spheroids expressing GCaMP6f along with those incubated in Cal6 dye. Recordings were captured with a 20× water immersion objective […] from the bottom of the well, and were obtained at a frame rate of 1.6 frames/sec with 480 frames total, making the recordings 5-min. The protocol was set to record well to well such that recordings were automated but taken from one spheroid at a time before recording from subsequent wells. […]
(§2) For peak detection data obtained from the Phenix Plus confocal microscope, image sequences were stored in and exported from Columbus Image Data Storage and Analysis as single plane TIFFs. […] Prior to peak detection analysis, the T-function, F div F0, in ImageJ was used to obtain calcium signals normalized to background fluorescence. […] The correlation matrix was used to describe how synchronous the calcium activity within a spheroid was, and a synchrony score was measured by calculating the average correlation coefficient across the matrix. […]

Data set [3] deals with VTA-like spheroids. The data set is described as above. The following applies: VTA-like spheroids expressing GCaMP6f; 10 μM DAMGO; day 21. Here is the method:
as §1, §2

In data set [4] the test system is VTA-like spheroids. In words: FLIPR calcium activity with Cal6 dye, control compounds / DAMGO (Example 3). The following applies: VTA-like spheroids in Cal6 dye; 10 μM DAMGO; day 21. Here is the method: (§3) Viruses and dyes: To assess calcium activity, the calcium dye, Cal6 (Molecular Devices), and genetically encoded calcium indicator, GCaMP6f (Addgene, cat #100836-AAV9) were used. Cal6 was used according to manufacturer's instructions and 10 mL of maintenance media was added to each vial. Two hours before activity was recorded, half of the spheroid media was exchanged for media with Cal6. The plates were covered in foil and placed in the incubator at 37° C. during the 2-hour (hr) incubation period. Since all viruses used were adeno-associated viruses (AAV), they were added to the media on day 7 to allow for 2-weeks expression prior to recording or testing. All viruses were added to the media at 2e5 multiplicity of infection (MOI). GCaMP6f infection occurred via an adeno-associated virus serotype 9 (AAV9) expressed under the CAG promoter for expression in both neurons and astrocytes. Designer receptors exclusively activated by designer drugs (DREADDs) viruses were used to stimulate and inhibit neuronal activity within spheroids. Both viruses were retrograde AAVs expressed under the human Synapsin promoter for expression in neurons and fused with an mCherry fluorophore. The DREADDs viruses either inserted the designer receptor hM4D(Gi), an inhibitory G-protein coupled receptor, or hM3D(Gq), a stimulatory G-protein coupled receptor. Clozapine-N-oxide (CNO, Tocris cat #4936) was suspended in dimethyl sulfoxide (DMSO) and used as the designer drug to activate the DREADDs viruses. CNO was tested at 1 and 10 μM, with data reported from the 1 μM concentration.
(§4) Fluorescent Imaging plate Reader (FLIPR): The FLIPR Penta (Molecular Devices) was used to assess calcium fluorescence across the 384-well plate simultaneously and to observe changes after treatment with compounds. The evening before calcium activity was measured, plates were sealed with parafilm and centrifuged at 1485×g for 2-min to get spheroids to the bottom of the well in a centered position. On the day of recording, the plate used for recording was placed in the read plate position inside of the FLIPR following the 2-hour Cal6 incubation at 37° C. Standard filter sets were used for Cal6 imaging with excitation set at 470-495 and emission at 515-575 nm. Fluorescent image reads were taken every 0.6 seconds for all plates, with exposure time of 0.03 and 50% excitation intensity. Recordings from the initial seven plates consisted of 1000 reads and were 10-min recordings with 2.5 gain, while the final two plates consisted of 500 reads (5-min recordings) with a gain of 2. Baseline recordings were taken across all plates and, if applicable, more recordings were obtained 1-, 30-, 60-, and/or 90-min after compound treatment. In between recordings, plates were wrapped in foil and placed back in the incubator at 37° C.
DAMGO was reconstituted in water at a 1 mM concentration and diluted in media to 20 µM such that spheroids would be treated with a final concentration of 10 μM after the half media exchange. Two aspects of OUD were modeled, chronic treatment along with opioid withdrawal. […]
384 Pin Tool: A 384 well pin tool (Rexroth) was used to transfer compounds simultaneously to the spheroid plate. […] Compound transfer via the 384 well pin tool occurred after the baseline recordings with the fluorescent imaging plate reader (FLIPR). […]

Data set [5] deals with PFC-like and VTA-like spheroids. Kind of data set: 3D Cell Titer Glo spheroid viability. Conditions: no DAMGO pre-treatment vs chronic DAMGO vs DAMGO withdrawal. Here is the method: 3D Cell Titer Glo: To measure spheroid cell viability across disease models and after compound treatment, the CellTiter-Glo 3D Cell Viability Assay (Promega, cat #G9681) was used according to the manufacturer's instructions. CellTiter-Glo 3D Reagent was thawed overnight at 4° C. and brought to room temperature (RT) for 20-min before use. After the FLIPR assay, 30 μL of CellTiter-Glo 3D Reagent was added to the spheroid plate and was mixed by shaking for 5-min at RT followed by a 25-min incubation period off the shaker at RT (about 25° C.). Luminescence was read using a PHERAstar FSX microplate reader (BMG LabTech) to measure amount of ATP present, indicating metabolically active cells.

Data set [6] has as its system PFC-like spheroids. In words: FLIPR calcium activity with Cal6 dye, control compounds / DAMGO / AD compounds (Example 3). The following applies: 10 μM DAMGO; for effect on peak count and peak spacing: recording 30-min later, then naloxone. The protocol:
as §3, §4
DAMGO was reconstituted in water at a 1 mM concentration and diluted in media to 20 µM such that spheroids would be treated with a final concentration of 10 μM after the half media exchange. Two aspects of OUD were modeled, chronic treatment along with opioid withdrawal. For spheroids subjected to chronic DAMGO treatment, 20 μM DAMGO in maintenance media was added via half media exchange beginning on day 10, with treatments occurring every other day for 10 days, giving a total of five treatments.
384 Pin Tool: A 384 well pin tool (Rexroth) was used to transfer compounds simultaneously to the spheroid plate. Prior to compound transfer, the pin tool went through four wash cycles where pins were rinsed with dimethyl sulfoxide (DMSO), followed by methanol, then deionized (DI) water, to ensure the pins were clean. Compound transfer via the 384 well pin tool occurred after the baseline recordings with the fluorescent imaging plate reader (FLIPR). Here, 60 nL of compound suspended in DMSO was transferred to 60 µL of media in each well, diluting the compounds by 1000-fold and giving a final DMSO concentration of 0.1%.

“Also recorded” adds a separate entry of the source.

`C[N+]1([O-])CCN(C2=Nc3cc(Cl)ccc3Nc3ccccc32)CC1` [CNO, Clozapine-N-oxide]: the “effect of chemogenetic activation on peak parameters” value in data set [1] (spheroids with Dopa or Gluta composition expressing hM3Dq) is “chemogenetic activation increased measures of peak frequency such as peak count and rate while reducing parameters such as peak spacing and peak width”. For the same molecule, the “effect of chemogenetic inhibition on peak parameters” value in data set [1] (spheroids with Dopa or Gluta composition expressing hM4Di) is reported as “the opposite was observed for these spheroids subjected to chemogenetic inhibition”.

Regarding `C[C@@H](NC(=O)[C@@H](N)Cc1ccc(O)cc1)C(=O)NCC(=O)N(C)[C@@H](Cc1ccccc1)C(=O)NCCO` [DAMGO, [D-Ala^2, N-MePhe^4, Gly-ol]-enkephalin], the “effect of chronic DAMGO / DAMGO withdrawal on baseline peak count, amplitude, width, synchrony (confocal)” value in the data set with PFC-like spheroids [2] was “peak count was reduced by chronic DAMGO treatment in PFC-like spheroids; also recorded: synchrony was unaffected in PFC-like spheroids; also recorded: DAMGO withdrawal reduced peak amplitude in VTA-like but not PFC-like spheroids; also recorded: Chronic DAMGO increased peak width in PFC-like but not VTA-like spheroids; also recorded: DAMGO withdrawal did not impact peak width in either spheroid type”; in the data set on VTA-like spheroids [3], “increased by DAMGO withdrawal in VTA-like spheroids; also recorded: DAMGO withdrawal reduced peak amplitude in VTA-like but not PFC-like spheroids; also recorded: Chronic DAMGO increased peak width in PFC-like but not VTA-like spheroids; also recorded: DAMGO withdrawal did not impact peak width in either spheroid type; also recorded: DAMGO withdrawal reduced synchrony in VTA-like spheroids”. The “effect of chronic DAMGO / DAMGO withdrawal on baseline peak count, amplitude, width (FLIPR)” value is reported as “chronic DAMGO treatment increased peak count in VTA-like spheroids; also recorded: unaffected in VTA-like spheroids; also recorded: reduced in VTA-like spheroids” in the data set on VTA-like spheroids [4] and “peak count was reduced by chronic DAMGO in PFC-like spheroids; also recorded: Peak amplitude was reduced by DAMGO withdrawal in PFC-like spheroids; also recorded: peak width was increased by chronic DAMGO in PFC-like spheroids” with PFC-like spheroids [6] (PFC-like spheroids in Cal6 dye, day 21). For the same molecule, the “spheroid viability (3D CTG)” value in data set [5] is “spheroid viability was similar”. Further, the entries for the “effect on peak count and peak spacing” value in the data set with PFC-like spheroids [6] (PFC-like chronic DAMGO-treated spheroids) and in the data set on PFC-like spheroids [6] (PFC-like control spheroids) were “chronic DAMGO-treated spheroids treated with either DMSO or DAMGO showed significant reductions in peak count” and “significant reduction in peak count was observed in control spheroids acutely treated with DAMGO; also recorded: acute DAMGO treatment in control spheroids increased peak spacing”, respectively.
